Results reported in the NIST ThermoML archive (doi:10.1021/acs.jced.8b00157).
Where “and” joins values, the source holds several entries; their conditions need not be identical. Equal values may be shown once.

Experiment: an = ratio of the nth substance listed
Conditions: 100 kPa, Liquid, Buoyancy - hydrostatic balance

[F][Al]([F])[F] [aluminum fluoride] + [F-].[K+]
mass density
Conditions	a2 = 1.3	a2 = 1.5
1039.4 K	1799 kg/m3	–
1039.6 K	1795 kg/m3	–
1039.8 K	1795 kg/m3	–
1039.9 K	1798 kg/m3	–
1040.1 K	1795 kg/m3	–
1040.4 K	1795 kg/m3	–
1040.6 K	1798 kg/m3 and 1795 kg/m3	–
1040.8 K	1798 kg/m3	–
1040.9 K	1797 kg/m3	–
1041 K	1796 kg/m3 and 1797 kg/m3	–
1041.2 K	1795 kg/m3	–
1042.1 K	1796 kg/m3	–
1042.3 K	1794 kg/m3	–
1042.5 K	1796 kg/m3	–
1042.8 K	1793 kg/m3 and 1794 kg/m3	–
1042.9 K	1792 kg/m3 and 1794 kg/m3	–
1043 K	1793 kg/m3	–
1043.1 K	1795 kg/m3	–
1043.4 K	1795 kg/m3	–
1043.7 K	1795 kg/m3	–
1043.8 K	1794 kg/m3	–
1043.9 K	1794 kg/m3 and 1791 kg/m3	–
1044.3 K	1791 kg/m3	–
1044.4 K	1791 kg/m3	–
1045 K	1793 kg/m3	–
1045.3 K	1793 kg/m3 and 1790 kg/m3	–
1045.4 K	1789 kg/m3	–
1045.6 K	1792 kg/m3	–
1045.8 K	1793 kg/m3	–
1046.1 K	1793 kg/m3	–
1046.3 K	1789 kg/m3	–
1046.5 K	1789 kg/m3	–
1046.7 K	1792 kg/m3 and 1789 kg/m3	–
1046.9 K	1789 kg/m3	–
1047 K	1789 kg/m3	–
1047.3 K	1792 kg/m3	–
1047.4 K	1791 kg/m3	–
1047.6 K	1791 kg/m3	–
1048 K	1791 kg/m3	–
1048.1 K	1788 kg/m3	–
1048.4 K	1786 kg/m3	–
1048.6 K	1790 kg/m3 and 1786 kg/m3	–
1048.8 K	1788 kg/m3	–
1049.4 K	1789 kg/m3	–
1049.5 K	1789 kg/m3	–
1049.6 K	1786 kg/m3	–
1049.7 K	1785 kg/m3	–
1049.9 K	1789 kg/m3	–
1050.5 K	1788 kg/m3 and 1785 kg/m3	–
1050.6 K	1784 kg/m3	–
1051.2 K	1787 kg/m3	–
1051.3 K	1787 kg/m3	–
1051.5 K	1787 kg/m3 and 1783 kg/m3 and 1784 kg/m3	–
1051.6 K	1787 kg/m3 and 1782 kg/m3	–
1052 K	1783 kg/m3	–
1052.2 K	1786 kg/m3 and 1782 kg/m3	–
1052.7 K	1786 kg/m3	–
1053.2 K	1782 kg/m3	–
1053.4 K	1786 kg/m3	–
1053.5 K	1786 kg/m3	–
1053.7 K	1786 kg/m3	–
1053.9 K	1782 kg/m3	–
1054.4 K	1785 kg/m3	–
1054.7 K	1784 kg/m3	–
1055.3 K	1784 kg/m3	–
1055.6 K	1784 kg/m3	–
1056 K	1784 kg/m3	–
1056.1 K	1783 kg/m3	–
1056.3 K	1783 kg/m3	–
1056.4 K	1783 kg/m3	–
1057.3 K	1782 kg/m3	–
1057.7 K	1782 kg/m3	–
1057.9 K	1781 kg/m3	–
1058.1 K	1781 kg/m3	–
1059.2 K	1781 kg/m3	–
1059.3 K	1780 kg/m3	–
1059.5 K	1780 kg/m3	–
1060.2 K	1779 kg/m3 and 1780 kg/m3	–
1060.5 K	–	1796 kg/m3
1060.8 K	–	1796 kg/m3
1061.1 K	1778 kg/m3	1796 kg/m3
1061.2 K	1779 kg/m3	–
1061.3 K	1778 kg/m3	–
1061.5 K	1779 kg/m3	–
1061.6 K	1777 kg/m3	1796 kg/m3
1061.9 K	–	1795 kg/m3
1062.2 K	–	1795 kg/m3
1062.5 K	–	1795 kg/m3
1062.8 K	1777 kg/m3	–
1062.9 K	–	1795 kg/m3
1063.2 K	1776 kg/m3 and 1777 kg/m3	–
1063.3 K	–	1794 kg/m3
1063.6 K	–	1794 kg/m3
1063.7 K	1776 kg/m3	–
1064.1 K	1775 kg/m3	1794 kg/m3
1064.4 K	–	1794 kg/m3
1064.6 K	1775 kg/m3	–
1064.7 K	–	1793 kg/m3
1065.2 K	–	1793 kg/m3
1065.3 K	1775 kg/m3	–
1065.5 K	–	1792 kg/m3
1065.8 K	1774 kg/m3	–
1066 K	1774 kg/m3	1792 kg/m3
1066.3 K	1775 kg/m3	–
1066.4 K	–	1792 kg/m3
1066.7 K	–	1792 kg/m3
1066.9 K	1774 kg/m3	–
1067 K	1773 kg/m3	–
1067.2 K	1773 kg/m3	1791 kg/m3
1067.4 K	–	1791 kg/m3
1067.7 K	1772 kg/m3	–
1067.9 K	–	1791 kg/m3
1068.2 K	–	1790 kg/m3
